Measured values published in publication PMC13401508 (Pharmacological research, 2026).

Columns and labels:
RM1-BM-Luc cells = experiment: Combination and survival study, RM1-BM-Luc syngeneic model; assay type: in vivo, C57BL/6 mice; conditions: RM1-BM-Luc in C57BL/6, day 14, IVMT-Rx-4 30 mg/kg and/or Docetaxel 5 mg/kg 3X a week for two weeks
Method: (§1) Both syngeneic (C57BL/6) and athymic nude mice were used for survival studies. Tumor cells (RM1-BM-Luc or PC3-ML-Luc) were injected intracardially in a cohort of 40 animals. […] In the combination groups, both regimens were administered 3X a week for two-weeks at the same dose as a single therapy. Animals were imaged periodically and maintained until euthanization was required.
(§2) Fig. 5. […] A and B) RM1-BM-Luc (A) or PC3-ML-Luc (B) cells were implanted I.C. in C57BL/6 and athymic nude mice, respectively. […] BLI images were used to detect bone metastases (the percentage incidence of bone metastases in animals was calculated at a single time point, day 14). Values are presented at the bottom panel of the respective group (red, number of animals positive for metastasis and black, total number of experimental animals). C and D) Animals were kept until mandated euthanasia based on IACUC guidelines, considered as disease associated death. The Kaplan–Meier survival curves were generated using GraphPad in both models as described in (A) and (B), respectively. E and F) Log-rank test was performed and values between different experimental groups are presented.

PC3-ML-Luc cells = experiment: Combination and survival study, PC3-ML-Luc model; assay type: in vivo; conditions: PC3-ML-Luc in athymic nude mice, day 14, IVMT-Rx-4 30 mg/kg and/or Docetaxel 5 mg/kg 3X a week for two weeks
Method: as §1, §2

[1] = test system: HS5, RWPE-1, C4–2B, PC3-ML, ARCaP-M and RM1-BM cells; experiment: Colony formation (clonal) assay; assay type: cell-based, human and murine; conditions: 50 μM, six repeated doses over a two-week period, tumor and non-tumor cells
Method: 200 cells/well were seeded in triplicate in 6-well plates. […] The colonies were fixed with ice-cold Methanol and stained with 0.5% crystal violet and counted.
Fig. 1. Primary characterization of IVMT-Rx-4. A) Chemical structure (upper panel) and synthesis scheme (lower panel). […] All proteins were extracted, and Western blotting was performed immediately after heating. Quantifications were obtained in the absence (control) or presence of IVMT-Rx-4 and values are presented as percentage of RT (room temperature) normalized for the experimental groups (control, IVMT-Rx-4). SOD (Superoxide dismutase) was used as an endogenous control. […] Colonies were stained with crystal violet and counted (n = 3 ± SD; ns: non-significant). […] Invaded cells were stained with crystal violet. Top panel: representative photograph of invaded cells under different experimental settings. Bottom panel: graphical representation of number of invaded cells/field for different cell lines (n = 3 ± SD; * p < 0.05).

[2] = Thermodynamic solubility in PBS, pH 7.4; assay type: physicochemical
[3] = Log D by shake flask (pH 7.4); assay type: physicochemical; conditions: pH 7.4, octanol/phosphate buffer
Method: Sodium Phosphate buffer pH 7.4 (10 mM) was used as the aqueous phase and octanol was used as the organic phase. […] The sealed plate was incubated at 25 °C with continuous agitation at 2000 rpm for 2 hrs. Samples were then separated by centrifugation, diluted 100-fold with a mixture of H20 and acetonitrile containing internal standard, and analyzed via LC-MS/MS. The Log D value was calculated using the following equation: […]

Caco-2 cell monolayer = experiment: Caco-2 bidirectional permeability; assay type: in vitro ADME
Method: To prepare the Caco-2 cell monolayer, 50 µL and 25 µL of cell culture medium (Dulbecco’s modified Eagle’s medium, DMEM) were added to each well of the inserts and reservoir, respectively, within a 96-well HTS Transwell plate (Corning, NY, USA). The plate was incubated at 37 °C and 5% CO2 for 1 hr. prior to cell seeding. Caco-2 cells were then diluted to 6.86 x 10^5 cells/mL using culture medium and 50 µL of cell suspension were seeded into the plate, and incubated at 37 °C, 5% CO2, and 95% relative humidity for 14-18 days. During this time, the cells were cultivated with media replacements occurring every other day. Cells were allowed to grow and differentiate and the integrity of the Caco-2 cell monolayer was evaluated by measurement of transepithelial electrical resistance (TEER) using a Millicell Epithelial Volt-Ohm measuring system (Millipore, USA).
Prior to the assay, the established monolayer was washed twice with pre-warmed HBSS and incubated at 37 °C for 30 minutes. A bidirectional permeability assay was performed simultaneously using two different plates as described previously (Supplementary Reference: Cui Y, Desevaux C, Truebenbach I, Sieger P, Klinder K, Long A, Sauer A. A Bidirectional Permeability Assay for beyond Rule of 5 Compounds. Pharmaceutics. 2021 Jul 27;13(8):1146. doi: 10.3390/pharmaceutics13081146. PMID: 34452112; PMCID: PMC8400635.): one assessed permeability from the apical to the basolateral side, while the other assessed from the basolateral to the apical side. […] For apical to basolateral permeability, 108 µL of working solution was loaded into the apical compartment, whereas 308 µL of working solution was added to the basolateral compartment for basolateral to apical permeability. The samples collected from donor and receiver compartment were mixed with 72 µL transport buffer and 240 µL of acetonitrile containing internal standard (IS, 100 nM alprazolam, 200 nM Caffeine and 100 nM tolbutamide), centrifuged at 1000 rpm for 10 minutes. […] In doing so, the following equations were used: […]
Where, Papp is apparent permeability (cm/s x 10^-6), dQ/dt is the rate of drug transport (pmol/second), A is the surface area of the membrane (cm^2), and D0 is the initial donor concentration (nM; pmol/cm^3). (B-A) indicates basolateral to apical permeation, where (A-B) indicates apical to basolateral.

[4] = Stability in liver microsomes with NADPH and UDPGA; assay type: in vitro ADME; conditions: all species (human, monkey, dog, rat, mouse), NADPH and UDPGA added
Method: Test samples were incubated at 37 °C, and Verapamil was used as a positive control. Samples were drawn from the incubation solution at different timepoints, centrifuged, then diluted with ultra-pure H20 and analyzed via LC-MS/MS. The natural logarithm of the remaining parent drug at each timepoint was plotted against incubation time, and the following equation was used to calculate the in vitro half-life:
in vitro t1/2 = -(0.693/k), where k is the rate constant.

CYP3A4 = molecular target: T1, CYP3A4 (Homo sapiens, UniProt P08684); experiment: Time dependent CYP inhibition (TDI); assay type: in vitro ADME; conditions: human liver microsomes, with or without NADPH
T1 construct: in the presence of human liver microsomes; from tissue; host or cells: human liver microsomes
T1 sequence (P08684 whole entry): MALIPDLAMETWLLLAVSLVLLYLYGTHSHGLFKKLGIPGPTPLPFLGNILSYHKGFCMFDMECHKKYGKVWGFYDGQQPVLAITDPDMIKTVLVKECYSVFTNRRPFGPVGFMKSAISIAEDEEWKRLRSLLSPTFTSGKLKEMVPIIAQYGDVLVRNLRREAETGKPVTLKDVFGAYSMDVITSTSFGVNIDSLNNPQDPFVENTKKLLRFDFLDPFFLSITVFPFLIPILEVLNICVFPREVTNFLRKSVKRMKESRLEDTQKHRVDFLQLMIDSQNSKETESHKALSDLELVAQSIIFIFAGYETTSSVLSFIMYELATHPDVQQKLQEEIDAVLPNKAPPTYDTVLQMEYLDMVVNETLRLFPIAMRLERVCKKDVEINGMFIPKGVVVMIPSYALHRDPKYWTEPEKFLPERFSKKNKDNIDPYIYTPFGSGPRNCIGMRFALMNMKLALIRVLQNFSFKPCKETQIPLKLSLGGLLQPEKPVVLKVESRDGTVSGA
Method: Then, the specific CYP3A4 substrate was added, and aliquots were collected at various time points. Samples were then diluted with ultra-pure water and analyzed by LC-MS/MS. Area ratio and remaining Activity (%) were calculated as above and IC50 values was calculated using Excel XLfit 5.3.1.3.

PXR = molecular target: T2, PXR (Homo sapiens, UniProt O75469); experiment: PXR assay using DPX2 cells; assay type: cell-based
T2 construct: expressed in transfected cells; host or cells: DPX2 cells
T2 sequence (O75469 1-434): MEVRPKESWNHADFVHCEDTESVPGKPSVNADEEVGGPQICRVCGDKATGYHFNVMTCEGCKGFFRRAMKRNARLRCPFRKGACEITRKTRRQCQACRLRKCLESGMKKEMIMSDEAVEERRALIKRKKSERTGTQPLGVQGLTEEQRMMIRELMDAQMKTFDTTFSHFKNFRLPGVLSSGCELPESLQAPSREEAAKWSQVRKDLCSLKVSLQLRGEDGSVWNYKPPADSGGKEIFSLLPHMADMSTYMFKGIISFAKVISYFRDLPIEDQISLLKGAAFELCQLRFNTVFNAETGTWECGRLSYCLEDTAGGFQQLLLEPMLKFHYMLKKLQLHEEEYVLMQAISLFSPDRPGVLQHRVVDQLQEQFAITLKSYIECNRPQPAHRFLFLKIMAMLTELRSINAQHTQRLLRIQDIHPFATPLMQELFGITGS
Method: DPX2 cells were initially cultured in T-75 flasks and maintained at 37°C in a humidified incubator with 5% CO2 and 95% relative humidity. Cells were allowed to reach 70-80% confluence prior to subculture. Next, cells were transferred to a culture plate and incubated for an additional 24 hours to allow for attachment and recovery prior to treatment. […] Cell viability and luciferase activity were measured using the CellTiter-Fluor™ Cell Viability Assay and One-GloTM Luciferase Assay System, respectively. Luciferase activity was normalized to viable number and fold activation of PXR was calculated using the following equation: […]

[5] = test system: Salmonella typhimurium TA98 & TA100; experiment: Mini-Ames assay; assay type: cell-based
Method: The mini-AMES assay was performed in Pharmaron, Inc. following the standard protocol as developed by the in-house scientist. […] The assay was conducted in the presence or absence of the S9 mix along with concurrent negative/solvent control and positive controls.

Structure (SMILES) | bone metastases, Incident/Total number tested (RM1-BM-Luc cells) | bone metastases, Incident/Total number tested (PC3-ML-Luc cells) | cell proliferation (colony formation) [1] | Thermodynamic solubility in PBS, pH 7.4 [2] [mg/ML] | Log D by shake flask (pH 7.4) [3] | Caco-2 Efflux ratio (Caco-2 cell monolayer; B-A/A-B) | Caco-2 Bidirectional A-B (Caco-2 cell monolayer; apical to basolateral, 10 µM) [×10⁻⁶ cm/s] | Caco-2 Bidirectional B-A (Caco-2 cell monolayer; basolateral to apical, 10 µM) [×10⁻⁶ cm/s] | t½ in liver microsomes [4] | Time-dependent inhibition (TDI), CYP3A4 (CYP3A4) | PXR assay (PXR) | Mini-Ames Assay (2-strain option: TA98 & TA100) [5]
CC(=O)O[C@@]12CO[C@@H]1C[C@H](O)[C@@]1(C)C(=O)[C@H](O)C3=C(C)[C@@H](OC(=O)[C@H](O)[C@@H](NC(=O)OC(C)(C)C)c4ccccc4)C[C@@](O)([C@@H](OC(=O)c4ccccc4)[C@H]21)C3(C)C [Docetaxel, reference compound] | 5/8 | 3/8 | – | – | – | – | – | – | – | – | – | –
Cc1cc(NC(=O)c2nc3nc4c(c(=O)n3[nH]2)CCC4)c(C)cc1NC(=O)CCc1nnc(-c2ccccc2)o1 [PDZ1i, reference compound] | – | – | did not inhibit cell proliferation | 10 | 0.5 | 300 | 0.04 | 11.5 | Minimal degradation: > 4 hr t½ in all species | No TDI | No induction | Negative
